We go through 53 compounds from paper PMC11243685, “Synthesis and Enzymatic Evaluation of a Small Library of Substituted Phenylsulfonamido-Alkyl Sulfamates towards Carbonic Anhydrase II” (Molecules, 2024).

The term Ki denotes the dissociation constant of the complex between target and ligand, obtained from inhibition or displacement. By inhibition is commonly meant the percentage by which the read-out fell short of the control. In general, melting point refers to the temperature of the solid-liquid transition.

The first data set deals with T1, bovine carbonic anhydrase II (Bos taurus, UniProt P00921).
T1 construct: carbonic anhydrase II (bCAII, ≥3000 W-A units/mg from bovine erythrocytes) from Sigma; purchased Sigma (Taufkirchen, Germany); host or cells: isolated from bovine erythrocytes
T1 sequence (P00921 whole entry): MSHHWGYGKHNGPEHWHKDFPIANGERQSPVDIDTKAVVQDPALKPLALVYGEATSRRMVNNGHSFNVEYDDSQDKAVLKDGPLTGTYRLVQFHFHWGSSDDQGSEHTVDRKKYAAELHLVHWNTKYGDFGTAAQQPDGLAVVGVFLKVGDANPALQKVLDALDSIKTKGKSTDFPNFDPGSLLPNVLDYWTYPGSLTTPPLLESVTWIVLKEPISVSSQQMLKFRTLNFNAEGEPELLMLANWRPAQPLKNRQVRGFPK
Briefly: Enzymatic assay of bCA II inhibition, absorbance at 415 nm.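 Further: enzyme is carbonic anhydrase II isolated from bovine erythrocytes, with its activity followed photometrically at 415 nm.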 It counts as biochemical. The following applies: CA II; from Lineweaver–Burk, Dixon and Cornish Bowden plots; read-out: Inhibition constant Ki.
Protocol: The enzymatic assays have been performed with carbonic anhydrase II (bCAII, ≥3000 W-A units/mg from bovine erythrocytes) from Sigma (Taufkirchen, Germany) using a BMG Labtech Spectrostar Omega apparatus (BMG Labtech, Ortenberg, Germany) measuring λ = 415 nm. Conditions have been described previously [72]. Ki and Ki′ values were determined from Lineweaver–Burk, Dixon and Cornish Bowden plots, respectively.
`Cc1ccccc1S(=O)(=O)NCCCCCCOS(N)(=O)=O` [30b, 6-[(2-Methylphenyl)sulfonamido]hexyl Sulfamate]: the Ki was found to be 1580 ± 20 nM.

Consider `CC(C)c1cccc(S(=O)(=O)NCCOS(N)(=O)=O)c1` [40b, 2-[(3-Isopropylphenyl)sulfonamido]ethyl Sulfamate], for which the Ki came out at 1640 ± 30 nM.

The same data set, now with this note: bCA II; 1 μM concentration of the inhibitor; triplicate with three technical replicas.
In turn, `NS(=O)(=O)OCCCCNS(=O)(=O)c1ccccc1` [3b, 4-(Phenylsulfonamido]butyl Sulfamate] yielded an inhibition at 1 µM of 32.2 ± 0.3%.

`CC(C)c1cccc(S(=O)(=O)NCCCCCCCCOS(N)(=O)=O)c1` [46b, 8-[(3-Isopropylphenyl)sulfonamido]octyl Sulfamate] gave an inhibition at 1 µM of 29.5 ± 0.9%.

For `CC(C)(C)c1cccc(S(=O)(=O)NCCCCCCOS(N)(=O)=O)c1` [62b, 6-[(3-(tert-Butyl)phenyl)sulfonamido]hexyl Sulfamate], the inhibition at 1 µM stood at 41.7 ± 0.8%.

In turn, `NS(=O)(=O)OCCCCCNS(=O)(=O)c1ccc(C2CCCCC2)cc1` [71b, 5-[(4-Cyclohexylphenyl)sulfonamido]pentyl Sulfamate] displayed an inhibition at 1 µM of 18.6 ± 1%.

In the case of `NS(=O)(=O)OCCCCCCCCNS(=O)(=O)c1ccc(C2CCCCC2)cc1` [74b, 8-[(4-Cyclohexylphenyl)sulfonamido]octyl Sulfamate], the inhibition at 1 µM turned out to be 14.2 ± 1.1%.

The compound `CC(C)(C)c1ccccc1S(=O)(=O)NCCCCCOS(N)(=O)=O` [65b, 5-[(2-(tert-Butyl)phenyl)sulfonamido]pentyl Sulfamate] returned an inhibition at 1 µM of 56.2 ± 0.8%.

`CC(C)(C)c1cccc(S(=O)(=O)NCCCOS(N)(=O)=O)c1` [59b, 3-[(3-(tert-Butyl)phenyl)sulfonamido]propyl Sulfamate] registered an inhibition at 1 µM of 53.9 ± 0.3%.

In the case of `CC(C)(C)c1cccc(S(=O)(=O)NCCCCCCCOS(N)(=O)=O)c1` [63b, 7-[(3-(tert-Butyl)phenyl)sulfonamido]heptyl Sulfamate], the inhibition at 1 µM was found to be 33.3 ± 0.3%.

With `CC(C)(C)c1ccccc1S(=O)(=O)NCCCCCCOS(N)(=O)=O` [66b, 6-[(2-(tert-Butyl)phenyl)sulfonamido]hexyl Sulfamate], the inhibition at 1 µM came out at 34.5 ± 0.4%.

In the case of `NS(=O)(=O)OCCCCCCCNS(=O)(=O)c1ccc(C2CCCCC2)cc1` [73b, 7-[(4-Cyclohexylphenyl)sulfonamido]heptyl Sulfamate], the inhibition at 1 µM was found to be 14.8 ± 0.4%.

`Cc1ccccc1S(=O)(=O)NCCCCCOS(N)(=O)=O` [29b, 5-[(2-Methylphenyl)sulfonamido]pentyl Sulfamate] came in with an inhibition at 1 µM of 57.2 ± 0.7%.

`CC(C)c1cccc(S(=O)(=O)NCCCCOS(N)(=O)=O)c1` [42b, 4-[(3-Isopropylphenyl)sulfonamido]butyl Sulfamate] showed an inhibition at 1 µM of 35.3 ± 0.5%.

`Cc1ccccc1S(=O)(=O)NCCCCCCCOS(N)(=O)=O` [31b, 7-[(2-Methylphenyl)sulfonamido]heptyl Sulfamate] gave an inhibition at 1 µM of 55.6 ± 0.7%.

As to `NS(=O)(=O)OCCNS(=O)(=O)c1ccccc1` [1b, 2-(Phenylsulfonamido]ethyl Sulfamate], the inhibition at 1 µM amounted to 59.2 ± 0.8%.

`Cc1ccccc1S(=O)(=O)NCCCCCCCCOS(N)(=O)=O` [32b, 8-[(2-Methylphenyl)sulfonamido]octyl Sulfamate] displayed an inhibition at 1 µM of 56.2 ± 0.8%.

Turning to `NS(=O)(=O)OCCCCCCCCCCNS(=O)(=O)c1ccc(C2CCCCC2)cc1` [76b, 10-[(4-Cyclohexylphenyl)sulfonamido]decyl Sulfamate], the inhibition at 1 µM came to 19.7 ± 1.6%.

In turn, `CC(C)(C)c1cccc(S(=O)(=O)NCCOS(N)(=O)=O)c1` [58b, 2-[(3-(tert-Butyl)phenyl)sulfonamido]ethyl Sulfamate] displayed an inhibition at 1 µM of 54 ± 0.9%.

In turn, `NS(=O)(=O)OCCCCNS(=O)(=O)c1ccc(C2CCCCC2)cc1` [70b, 4-[(4-Cyclohexylphenyl)sulfonamido]butyl Sulfamate] returned an inhibition at 1 µM of 34.7 ± 2.5%.

For `NS(=O)(=O)OCCNS(=O)(=O)c1ccc(C2CCCCC2)cc1` [68b, 2-[(4-Cyclohexylphenyl)sulfonamido]ethyl Sulfamate], the inhibition at 1 µM came out at 52.1 ± 1.2%.

`CC(C)c1cccc(S(=O)(=O)NCCCOS(N)(=O)=O)c1` [41b, 3-[(3-Isopropylphenyl)sulfonamido]propyl Sulfamate] displayed an inhibition at 1 µM of 50.1 ± 0.9%.

Regarding `CC(C)c1cccc(S(=O)(=O)NCCCCCCCOS(N)(=O)=O)c1` [45b, 7-[(3-Isopropylphenyl)sulfonamido]heptyl Sulfamate], the inhibition at 1 µM was 37 ± 0.3%.

`CC(C)c1ccccc1S(=O)(=O)NCCCCCCCOS(N)(=O)=O` [47b, 7-[(2-Isopropylphenyl)sulfonamido]heptyl Sulfamate]: 1 µM produced 38.4 ± 0.2% inhibition.

The compound `CC(C)(C)c1cccc(S(=O)(=O)NCCCCCOS(N)(=O)=O)c1` [61b, 5-[(3-(tert-Butyl)phenyl)sulfonamido]pentyl Sulfamate] gave an inhibition at 1 µM of 39.2 ± 0.1%.

In the case of `Cc1ccccc1S(=O)(=O)NCCCCOS(N)(=O)=O` [28b, 4-[(2-Methylphenyl)sulfonamido]butyl Sulfamate], at 1 µM the inhibition was 37.9 ± 0.7%.

The compound `CC(C)c1ccccc1S(=O)(=O)NCCCCCCCCOS(N)(=O)=O` [48b, 8-[(2-Isopropylphenyl)sulfonamido]octyl Sulfamate] registered an inhibition at 1 µM of 34.2 ± 0.7%.

In the case of `CC(C)(C)c1ccccc1S(=O)(=O)NCCCCCCCOS(N)(=O)=O` [67b, 7-[(2-(tert-Butyl)phenyl)sulfonamido]heptyl Sulfamate], the inhibition at 1 µM turned out to be 27.5 ± 0.3%.

The compound `Cc1ccccc1S(=O)(=O)NCCCCCCOS(N)(=O)=O` [30b, 6-[(2-Methylphenyl)sulfonamido]hexyl Sulfamate] registered an inhibition at 1 µM of 68.1 ± 0.3%.

`CC(C)c1cccc(S(=O)(=O)NCCCCCCOS(N)(=O)=O)c1` [44b, 6-[(3-Isopropylphenyl)sulfonamido]hexyl Sulfamate]: the inhibition at 1 µM worked out at 45.5 ± 0.7%.

In the case of `CC(C)c1cccc(S(=O)(=O)NCCOS(N)(=O)=O)c1` [40b, 2-[(3-Isopropylphenyl)sulfonamido]ethyl Sulfamate], testing at 1 µM gave an inhibition of 63.7 ± 0.1%.

The compound `CC(C)c1cccc(S(=O)(=O)NCCCCCOS(N)(=O)=O)c1` [43b, 5-[(3-Isopropylphenyl)sulfonamido]pentyl Sulfamate] had an inhibition at 1 µM of 44.4 ± 0.3%.

Compound `NS(=O)(=O)OCCCCCNS(=O)(=O)c1ccccc1` [4b, 5-(Phenylsulfonamido]pentyl Sulfamate] gave an inhibition at 1 µM of 51.8 ± 0.7%.

Compound `CC(C)(C)c1cccc(S(=O)(=O)NCCCCOS(N)(=O)=O)c1` [60b, 4-[(3-(tert-Butyl)phenyl)sulfonamido]butyl Sulfamate] returned an inhibition at 1 µM of 43.3 ± 0.6%.

Tested on in a further data set: not given
Assay: not given
Conditions: not given
`CC(C)(C)c1ccc(S(=O)(=O)NCCCCCCO)cc1` [53a, 4-(tert-Butyl)-N-(6-hydroxyhexyl)benzene Sulfonamide] registered a melting point of 53 to 54 °C.

Compound `CC(C)(C)c1ccc(S(=O)(=O)NCCCCCCCO)cc1` [54a, 4-(tert-Butyl)-N-(7-hydroxyheptyl)benzene Sulfonamide] displayed a melting point of 51 to 52 °C.

Compound `CC(C)(C)c1ccc(S(=O)(=O)NCCO)cc1` [49a, 4-(tert-Butyl)-N-(2-hydroxyethyl)benzene Sulfonamide] displayed a melting point of 75 to 77 °C.

As for `CC(C)(C)c1ccc(S(=O)(=O)NCCCCO)cc1` [51a, 4-(tert-Butyl)-N-(4-hydroxybutyl)benzene Sulfonamide], the melting point fell in the range of 58 to 60 °C.

For the compound `Cc1ccc(S(=O)(=O)NCCCO)cc1` [13a, N-(3-Hydroxypropyl)-4-methylbenzene Sulfonamide], the melting point is 55 to 57 °C.

Compound `O=S(=O)(NCCCCCCCCCCO)c1ccc(C23CC4CC(CC(C4)C2)C3)cc1` [79a, 4-(Adamantan-1-yl)-N-(10-hydroxydecyl)benzene Sulfonamide] returned a melting point of 76 to 79 °C.

Take `CC(C)(C)c1ccc(S(=O)(=O)NCCCCCCCCCCO)cc1` [57a, 4-(tert-Butyl)-N-(10-hydroxydecyl)benzene Sulfonamide]: the melting point lay within 75 to 76 °C.

Take `CC(C)(C)c1ccc(S(=O)(=O)NCCCCCCCCO)cc1` [55a, 4-(tert-Butyl)-N-(8-hydroxyoctyl)benzene Sulfonamide]: the melting point is 69 to 71 °C.

`CC(C)(C)c1ccc(S(=O)(=O)NCCCCCCCCCO)cc1` [56a, 4-(tert-Butyl)-N-(9-hydroxynonyl)benzene Sulfonamide] returned a melting point of 69 to 70 °C.

In the case of `Cc1ccc(S(=O)(=O)NCCO)cc1` [12a, N-(2-Hydroxyethyl)-4-methylbenzene Sulfonamide], the melting point is 55 to 57 °C.

Compound `O=S(=O)(NCCCCCCCCCO)c1ccccc1` [8a, N-(9-Hydroxynonyl)benzene Sulfonamide] had a melting point of 40 to 41 °C.

Take `O=S(=O)(NCCCCCCCCO)c1ccccc1` [7a, N-(8-Hydroxyoctyl)benzene Sulfonamide]: the melting point fell in the range of 59 to 60 °C.

In the case of `Cc1ccc(S(=O)(=O)NCCCCO)cc1` [14a, N-(4-Hydroxybutyl)-4-methylbenzene Sulfonamide], the melting point is 50 to 51 °C.

With `O=S(=O)(NCCCCCCCCCCO)c1ccccc1` [9a, N-(10-Hydroxydecyl)benzene Sulfonamide], the melting point was 67 to 69 °C.

`Cc1ccc(S(=O)(=O)NCCCCCCCCO)cc1` [18a, N-(8-Hydroxyoctyl)-4-methylbenzene Sulfonamide] yielded a melting point of 87 to 88 °C.

Compound `O=S(=O)(NCCCCCCCCCCCO)c1ccccc1` [10a, N-(11-Hydroxyundecyl)benzene Sulfonamide] returned a melting point of 58 to 59 °C.

`Cc1ccccc1S(=O)(=O)NCCO` [26a, N-(2-Hydroxyethyl)-2-methylbenzene Sulfonamide] registered a melting point of 73 to 74 °C.

With `Cc1ccc(S(=O)(=O)NCCCCCO)cc1` [15a, N-(5-Hydroxypentyl)-4-methylbenzene Sulfonamide], the melting point is 60 to 61 °C.

The compound `O=S(=O)(NCCCCCCCCCCCCO)c1ccccc1` [11a, N-(12-Hydroxydodecyl)benzene Sulfonamide] returned a melting point of 76 to 77 °C.

`O=S(=O)(NCCCCCCO)c1ccc(C2CCCCC2)cc1` [72a, 4-Cyclohexyl-N-(6-hydroxyhexyl)benzene Sulfonamide] displayed a melting point of 87 to 88 °C.

As for `O=S(=O)(NCCCCCCCCO)c1ccc(C23CC4CC(CC(C4)C2)C3)cc1` [77a, 4-(Adamantan-1-yl)-N-(8-hydroxyoctyl)benzene Sulfonamide], the melting point lay within 101 to 102 °C.
